Experimental data: PMC6724035, “Evaluation of Tumor-Targeting Properties of an Antagonistic Bombesin Analogue RM26 Conjugated with a Non-Residualizing Radioiodine Label Comparison with a Radiometal-Labelled Counterpart” (Pharmaceutics, 2019)
Where a SMILES comes first, the peptide text is derived from it. [ ]: non-standard residue; d: D form. Tyr(3-I) = N[C@@H](Cc1ccc(O)c(I)c1)C(=O)O; Sta = CC(C)C[C@H](N)[C@@H](O)CC(=O)O; AEEA = NCCOCCOCC(=O)O

Legend:
in vivo = settings: mouse, iv; for tissue to tissue ratio at 0.5 h / tissue to tissue ratio at 3 h / tissue to tissue ratio at 24 h: female, BALB/c nu/nu, total radioactivity; for tissue uptake at 0.5 h / tissue uptake at 3 h / tissue uptake at 24 h: 40 pmol, 40 pmol i.v.; for tissue uptake at 0.5 h: 0.5 h after injection; for tissue uptake at 3 h: 3 h after injection; for tissue uptake at 24 h: 24 h after injection
Experimental: (§1) Animal studies were planned and performed in agreement with EU Directive 2010/63/EU for animal experiments and Swedish national legislation concerning protection of laboratory animals. Experiments were approved by the Ethics Committee for Animal Research in Uppsala (C4/16, 26 February 2016). Biodistribution studies were performed in female BALB/C nu/nu mice purchased from Scanbur A/S (Karlslunde, Denmark). GRPR-expressing xenografts were established by subcutaneous injection of 5 × 10^6 PC-3 cells/mouse in the right hind leg of mice 3 weeks before the experiment. The animals were randomized into groups of four mice for each data point.
(§2) Mice were euthanized followed by dislocation of their neck at 0.5 h after injection and blood samples were collected by heart puncture. At 3 and 24 h after injection, mice were euthanized by an intraperitoneal injection of anaesthetic solution (20 µL of solution per gram of body weight: Ketalar, 10 mg/mL; Rompun, 1 mg/mL) followed by heart puncture. Salivary glands, thyroid, lung, liver, spleen, pancreas, stomach, small intestine, kidneys, tumour, muscle, and bone were collected and weighed. The organ radioactivity was measured in a gamma-counter and uptake values of organs were calculated as percentage of injected dose per gram tissue (% ID/g). To test the in vivo binding specificity, a group of mice was co-injected with 7.5 nmol of non-labelled peptide (NOTA-PEG4-RM26), and biodistribution was measured at 0.5 h after injection.

[1] = test system: GRPR-expressing PC-3 tumour xenograft; assay: in vivo; settings: PC-3 xenograft
Experimental: as §1, §2

[2] = Experimental: Lipophilicity was determined as the logarithm of partition coefficient, logP, of the radiolabelled compound between n-octanol and water. To determine the lipophilicity of both radioconjugates, 500 µL of n-octanol was added to a tube containing the same volume of Milli-Q water. 1 pmol (10 kBq) of radioconjugate was added. The mixture was vigorously vortexed for 1–2 min and then centrifuged. Aliquots of 100 μL were taken from each phase and their radioactivity was measured by an automated gamma-counter. The partition coefficient was calculated as the average log of a ratio of the radioactivity in organic and aqueous fractions. Each measurement was repeated in triplicate.
PC-3 cells = assay: Cellular processing assay (membrane-bound and internalized radioactivity); type: cell-based, human; settings: 1 nM, 37 °C
Experimental: At predetermined time points (1, 2, 4, 8, 24 h), incubation media was aspirated, cells were washed with serum-free media, and membrane-bound and internalized radioactivity were collected using the method described earlier. The membrane-bound radiolabelled conjugate were removed from cells by treatment with 4 M urea solution in a 0.1 M glycine buffer, pH 2, for 5 min on ice. The cell debris containing the internalized conjugate was detached by treatment with 1 M NaOH. Radioactivity of samples was measured, and percentage of membrane-bound, internalized and total radioactivity was calculated. The experiments were performed in triplicate.

[3] = 0.5 h; 300 µg phosphoramidon co-injected; non-tumour bearing NMRI mice
Experimental: Two groups of 4 mice were used for this experiment. Biodistribution of [^125I]I-Tyr-PEG2-RM26 was evaluated in female NMRI mice (weight: 29.6 ± 1.7 g). Non-tumour bearing mice as a control group were injected with 40 pmol of [^125I]I-Tyr-PEG2-RM26 (30 kBq, 100 μL in PBS) into the tail vein. Another group of mice was injected with same activity by co-injection of PA (15 µL of 20 mg/mL stock solution, 300 µg). After 0.5 h, mice were euthanized by dislocation of their neck, and blood samples were collected. Salivary glands, thyroid, lung, liver, spleen, pancreas, stomach, small intestine, kidneys, […], muscle, and bone were collected and weighed. The organ radioactivity was measured in a gamma-counter and uptake values of organs were calculated as percentage injected dose per gram tissue (% ID/g).

[4] = test system: GRPR-expressing PC-3 tumour xenograft; settings: 0.5 h after injection; co-injection of non-labelled NOTA-PEG4-RM26
Experimental: as §1
as §2, with “Salivary glands, thyroid, lung, liver, spleen, pancreas, stomach, small intestine, kidneys, tumour, muscle, and bone were collected and weighed.” left out

[5] = HPLC
Experimental: In vitro stability of [^125I]I-Tyr-PEG2-RM26 was evaluated in PBS and in presence of 100-fold molar excess of sodium iodide (1 mM). After purification, samples of freshly labelled conjugate (10 µL, 0.01 nmol) were mixed with 1 µL of NaI and incubated at room temperature for 1 h. Control samples were mixed with equal volume of PBS. The experiment was performed in duplicates. The stability of [^125I]I-Tyr-PEG2-RM26 was analyzed by HPLC.

[6] = small intestine, small intestine

CC(C)C[C@H](NC(=O)C[C@H](O)[C@H](CC(C)C)NC(=O)[C@H](Cc1c[nH]cn1)NC(=O)CNC(=O)[C@@H](NC(=O)[C@H](C)NC(=O)[C@H](Cc1c[nH]c2ccccc12)NC(=O)[C@H](CCC(N)=O)NC(=O)[C@@H](Cc1ccccc1)NC(=O)COCCOCCNC(=O)[C@@H](N)Cc1ccc(O)c(I)c1)C(C)C)C(N)=O [[^125I]I-Tyr-PEG2-RM26] (H-[Tyr(3-I)][AEEA][dF]QWAVGH[Sta]L-NH2)
tissue to tissue ratio at 0.5 h (in vivo; tumour and bone): 1.9 ± 0.2
tissue to tissue ratio at 3 h (in vivo; tumour and bone): 1.9 ± 0.3
tissue to tissue ratio at 0.5 h (in vivo; tumour and kidney): 0.5
tissue to tissue ratio at 3 h (in vivo; tumour and kidney): 0.3 ± 0.1
tissue to tissue ratio at 24 h (in vivo; tumour and kidney): 0.1
tissue to tissue ratio at 0.5 h (in vivo; tumour and liver): 0.8 ± 0.2
tissue to tissue ratio at 3 h (in vivo; tumour and liver): 0.8 ± 0.2
tissue to tissue ratio at 24 h (in vivo; tumour and liver): 0.6 ± 0.5
tissue to tissue ratio at 0.5 h (in vivo; tumour and lung): 0.8
tissue to tissue ratio at 3 h (in vivo; tumour and lung): 0.6 ± 0.1
tissue to tissue ratio at 24 h (in vivo; tumour and lung): 1 ± 0.6
tissue to tissue ratio at 0.5 h (in vivo; tumour and muscle): 3.6 ± 0.4
tissue to tissue ratio at 3 h (in vivo; tumour and muscle): 3.7 ± 0.6
tissue to tissue ratio at 0.5 h (in vivo; tumour and pancreas): 0.7 ± 0.1
tissue to tissue ratio at 3 h (in vivo; tumour and pancreas): 0.9 ± 0.1
tissue to tissue ratio at 0.5 h (in vivo; tumour and salivary gland): 1.3 ± 0.6
tissue to tissue ratio at 3 h (in vivo; tumour and salivary gland): 1.2 ± 0.3
tissue to tissue ratio at 0.5 h (in vivo; tumour and small intestine): 1.1 ± 0.6
tissue to tissue ratio at 3 h (in vivo; tumour and small intestine): 1.3 ± 0.4
tissue to tissue ratio at 0.5 h (in vivo; tumour and spleen): 1.3 ± 0.2
tissue to tissue ratio at 3 h (in vivo; tumour and spleen): 1.1 ± 0.1
tissue to tissue ratio at 0.5 h (in vivo; tumour and stomach): 0.6 ± 0.2
tissue to tissue ratio at 3 h (in vivo; tumour and stomach): 0.5 ± 0.1
tissue to tissue ratio at 0.5 h (in vivo; tumour and thyroid): 1 ± 0.5
tissue to tissue ratio at 3 h (in vivo; tumour and thyroid): 1.2 ± 0.6
tissue to tissue ratio at 0.5 h (in vivo; tumour and whole blood): 0.7
tissue to tissue ratio at 3 h (in vivo; tumour and whole blood): 0.8 ± 0.1
tissue to tissue ratio at 24 h (in vivo; tumour and whole blood): 6 ± 4
tissue uptake at 0.5 h (in vivo; blood, blood): 10.2 ± 1.5 %ID/g
tissue uptake at 3 h (in vivo; blood, blood): 2.9 ± 1.5 %ID/g
tissue uptake at 24 h (in vivo; blood, blood): 0.02 %ID/g
tissue uptake at 0.5 h (in vivo; bone, bone): 3.8 ± 0.8 %ID/g
tissue uptake at 3 h (in vivo; bone, bone): 1.1 ± 0.5 %ID/g
tissue uptake at 0.5 h (in vivo; kidney, kidney): 13.2 ± 1.8 %ID/g
tissue uptake at 3 h (in vivo; kidney, kidney): 6.1 ± 1.1 %ID/g
tissue uptake at 24 h (in vivo; kidney, kidney): 1.5 ± 0.3 %ID/g
tissue uptake at 0.5 h (in vivo; liver, liver): 8.9 ± 3.1 %ID/g
tissue uptake at 3 h (in vivo; liver, liver): 2.6 ± 1.1 %ID/g
tissue uptake at 24 h (in vivo; liver, liver): 0.2 %ID/g
tissue uptake at 0.5 h (in vivo; lung, lung): 9.1 ± 1.2 %ID/g
tissue uptake at 3 h (in vivo; lung, lung): 3.5 ± 1.4 %ID/g
tissue uptake at 24 h (in vivo; lung, lung): 0.2 ± 0.1 %ID/g
tissue uptake at 0.5 h (in vivo; muscle, muscle): 2 %ID/g
tissue uptake at 3 h (in vivo; muscle, muscle): 0.6 ± 0.3 %ID/g
tissue uptake at 0.5 h (in vivo; pancreas, pancreas): 10.1 ± 1.2 %ID/g
tissue uptake at 3 h (in vivo; pancreas, pancreas): 2.3 ± 0.6 %ID/g
tissue uptake at 0.5 h (in vivo; salivary gland, salivary gland): 6.6 ± 3.7 %ID/g
tissue uptake at 3 h (in vivo; salivary gland, salivary gland): 2 ± 1.2 %ID/g
tissue uptake at 0.5 h (in vivo; [6]): 7.3 ± 3 %ID/g
tissue uptake at 3 h (in vivo; [6]): 1.8 ± 0.7 %ID/g
tissue uptake at 0.5 h (in vivo; spleen, spleen): 5.4 ± 0.8 %ID/g
tissue uptake at 3 h (in vivo; spleen, spleen): 2 ± 0.8 %ID/g
tissue uptake at 0.5 h (in vivo; stomach, stomach): 13.2 ± 7.2 %ID/g
tissue uptake at 3 h (in vivo; stomach, stomach): 4.6 ± 2.7 %ID/g
tissue uptake at 24 h (in vivo; stomach, stomach): 0.1 %ID/g
tissue uptake at 0.5 h (in vivo; thyroid, thyroid): 8.2 ± 3.7 %ID/g
tissue uptake at 3 h (in vivo; thyroid, thyroid): 2.2 ± 1.6 %ID/g
tissue uptake at 0.5 h (in vivo; tumour, tumour, non-blocked): 7 ± 0.8 %ID/g
tissue uptake at 3 h (in vivo; tumour, tumour): 2.1 ± 0.8 %ID/g
Decrease of tumour uptake at 3 h compared to 0.5 h after injection [1]: more than 3 fold
logP [2]: 1 ± 0.1
Cellular processing pattern (PC-3 cells): quite fast internalization during the first hour
Influence of PA co-injection on blood clearance rate or uptake in normal non-targeted organs and tissues [3]: did not show any significant influence
Uptake in GRPR-positive organs (pancreas, small intestines, stomach) after co-injection of PA [3]: No significant increase
Uptake in pancreas, blocked vs non-blocked group [4]: significantly (p < 0.05) reduced
In vitro stability in presence of excess 1 mM NaI ([5]; 100-fold molar excess NaI, 1 h at room temperature): 92 ± 3%
In vitro stability in PBS ([5]; 1 h incubation at room temperature): 95 ± 1%
